Series [1] in a line: Injection site reactions in cattle. The series is classed as in vivo. To be noted: injectable pharmaceutical compositions. As for the experimental part:
Cattle injected with injectable pharmaceutical compositions containing Compound (A) were evaluated for reactions at the injection site. These injection site reactions were compared to the injection site reactions of cattle injected with injectable pharmaceutical compositions containing Compounds (B) and (C). The compounds were formulated as aqueous solution injectable pharmaceutical compositions or as suspension injectable pharmaceutical compositions as indicated below. These formulations were prepared as described in Examples 1 and 2. Compound (A) was formulated as both an aqueous solution using the free base form of the compound and as a suspense using the dihydrochloride salt of the compound. The composition of the aqueous solution injectable pharmaceutical composition was 15% w/v of Compound A, 15% w/v Poloxamer […], 6% w/v Benzyl Alcohol, 7% w/v Citric Acid, and QS Water. The composition of the suspension injectable pharmaceutical composition was 15% w/v Compound A (17.5% w/v HCl salt of Compound A), 0.1% w/v Kolliphor HS 15 and QS Miglyol 812. Compound A was administered to the animals in a dose of 10 mg/kilogram of body weight. Compound (B) was formulated as both an aqueous solution using the free base form of the compound and as a suspense using the dihydrochloride salt of the compound. The composition of the aqueous solution injectable pharmaceutical composition was 15% w/v of Compound B, 15% w/v Poloxamer […], 6% w/v Benzyl Alcohol, 7% w/v Citric Acid, and QS Water. The composition of the suspension injectable pharmaceutical composition was 15% w/v Compound B (17.5% w/v HCl salt of Compound B), 0.1% w/v Kolliphor HS 15 and QS Miglyol 812. Compound A was administered to the animals in a dose of 10 mg/kilogram of body weight. Compound (C) was formulated as both an aqueous solution using the free base form of the compound. The composition of the aqueous solution injectable pharmaceutical composition was 10% w/v of Compound C, 15% w/v Poloxamer […], 6% w/v Benzyl Alcohol, 7% w/v Citric Acid, and QS Water. Compound A was administered to the animals in a dose of 10 mg/kilogram of body weight. Injection sites were examined clinically by a trained person, Size of the swelling is measured with a ruler to the closest 0.5 cm horizontally, vertical and depth. These three measured values were multiplied to an estimation of the volume of the square box surrounding the observed swelling.

Series [2] relates to microbes that cause respiratory disease in animals. The series is described as follows: Activity against the microbes that cause respiratory disease in animals (statement). The series is classed as cell-based.

`CC(C)(N)[C@H](NC(=O)c1ccc(C#Cc2ccc(CNC3CC3)cc2)cc1)C(=O)NO` [Compound B]: the “Injection site reactions, overall assessment” value in series [1] was “not resolved during the duration of the study”; in series [1] (listed as Compound (B)), “unacceptable injection site reactions”. For the same compound, the “Activity against the microbes that cause respiratory disease in animals” value in series [2] is “active against the microbes that cause respiratory disease in animals”.
As to `CC(C)(N)[C@H](NC(=O)c1ccc(C#Cc2ccc(CNCC(F)(F)F)cc2)cc1)C(=O)NO` [Compound C], the “Injection site reactions, overall assessment” value in series [1] is recorded as “not resolved during the duration of the study”; in series [1] (listed as Compound (C)), “unacceptable injection site reactions”. In addition, in series [2], the “Activity against the microbes that cause respiratory disease in animals” value was “active against the microbes that cause respiratory disease in animals”.

Source of the values: patent publication US20250057790A1, “AN INJECTABLE PHARMACEUTICAL COMPOSITION FOR THE TREATMENT OF RESPIRATORY DISEASES IN ANIMALS” (priority 2021, published 2025).
